The compounds below were run against PHGDH (Homo sapiens (Human), UniProt O43175) (assay: PHGDH inhibition, coupled assay with PSAT1/PSPH and diaphorase/resazurin readout). Conditions: Table E9; mixture with PSAT1, PSPH; diaphorase/resazurin reporter.
Type: biochemical

Sequence of PHGDH (O43175 whole entry): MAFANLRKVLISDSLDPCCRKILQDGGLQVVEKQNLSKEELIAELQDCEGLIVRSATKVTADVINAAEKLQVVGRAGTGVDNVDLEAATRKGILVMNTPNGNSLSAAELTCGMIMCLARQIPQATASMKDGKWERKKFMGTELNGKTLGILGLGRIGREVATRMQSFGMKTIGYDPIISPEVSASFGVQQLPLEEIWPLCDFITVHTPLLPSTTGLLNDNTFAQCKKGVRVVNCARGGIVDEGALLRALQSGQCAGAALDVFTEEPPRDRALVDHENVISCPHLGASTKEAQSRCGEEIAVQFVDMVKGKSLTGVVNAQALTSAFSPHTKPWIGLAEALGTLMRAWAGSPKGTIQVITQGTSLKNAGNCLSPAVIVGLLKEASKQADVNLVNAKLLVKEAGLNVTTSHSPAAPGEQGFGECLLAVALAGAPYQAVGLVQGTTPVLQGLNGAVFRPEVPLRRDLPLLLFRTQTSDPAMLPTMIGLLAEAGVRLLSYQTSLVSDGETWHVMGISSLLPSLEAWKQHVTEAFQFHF

SMILES	IC50 [µM]
Cc1cc(C)nc(NC(=S)N2CCN(Cc3ccc(C)c(C(F)(F)F)c3)CC2)c1 [Compound 302]	5 to 10
Cc1cc(C)nc(NC(=S)N2CCN(c3cc(Cl)c(Cl)cc3Cl)CC2)c1 [Compound 220]	≥ 20
Cc1cc(C)nc(NC(=S)N2CCN(c3cccc(OC(F)(F)F)c3)CC2)c1 [Compound 134]	5 to 10
COc1ccnc(NC(=S)N2CCN(c3ccc4ccccc4n3)CC2)c1 [Compound 186]	10 to 20
Cc1cc(C)nc(NC(=S)N2CCN(c3ccc(-c4ccccc4)cc3)CC2)c1 [Compound 133]	≥ 20
Cc1cc(C)nc(NC(=S)N2CCN(c3cc4ccccc4cn3)CC2)c1 [Compound 145]	≥ 20
Cc1cc2nc(NC(=S)N3CCN(c4cccc(C(F)(F)F)c4)CC3)[nH]c2cc1C [Compound 244]	< 5
Cc1cc(C)nc(NC(=S)N2CCN(Cc3cccnc3)CC2)c1 [Compound 283]	≥ 20
COc1cc(N2CCN(C(=S)Nc3cc(C)cc(C)n3)CC2)cc(C(F)(F)F)c1 [Compound 136]	10 to 20
Cc1ccnc(NC(=S)N2CCN(c3cccc(C(F)(F)F)n3)CC2)c1 [Compound 175]	< 5
Cc1cc(C)nc(NC(=S)N2CCN(c3ccc(F)c(F)c3)CC2)c1 [Compound 214]	5 to 10
Cc1cc(C)nc(NC(=S)N2CCN(Cc3ccc(OC(F)(F)F)cc3)CC2)c1 [Compound 296]	< 5
Cc1cc(C)nc(NC(=S)N2CCCC(Nc3cccc(C(F)(F)F)c3)C2)c1 (centres unmarked) [Compound 251]	< 5
Cc1ccnc(NC(=S)N[C@@H]2CCN(c3cccc(C(F)(F)F)c3)C2)c1 [Compound 42]	≥ 20
Cc1cc(C)nc(NC(=S)N2CCN(c3coc4ccccc34)CC2)c1 [Compound 86]	10 to 20
S=C(Nc1cc(Cl)ccn1)N1CCN(c2ccc(Cl)c(Cl)c2)CC1 [Compound 200]	10 to 20
COc1ccnc(NC(=S)N2CCN(c3cc(C(F)(F)F)cc(C(F)(F)F)c3)CC2)c1 [Compound 179]	< 5
Cc1cc(C)nc(NC(=S)N2CCN(c3ccc4nsnc4c3)CC2)c1 [Compound 163]	10 to 20

SMILES	IC50 [µM]
COc1cccc(NC(=S)N2CCN(c3ccc4ccccc4n3)CC2)n1 [Compound 196]	≥ 20
Cc1cc(C)nc(NC(=S)N2CCN(c3cc(C(F)(F)F)cc(C(F)(F)F)c3)CC2)c1 [Compound 64]	5 to 10
Cc1ccnc(NC(=S)NC2CN(c3cccc(C(F)(F)F)c3)C2)c1 [Compound 47]	≥ 20
Cc1cc(C)nc(NC(=S)N2CCN(c3cccc(C(=O)O)c3)CC2)c1 [Compound 102]	≥ 20
Cc1cc(C)nc(NC(=S)N2CCN(Cc3cccc(Cl)c3)CC2)c1 [Compound 284]	10 to 20
Cc1cc(C)nc(NC(=S)N2CCN(Cc3ccc(C(F)(F)F)cc3)C(c3ccccc3)C2)c1 (centres unmarked) [Compound 273]	10 to 20
Cc1cc(C)nc(NC(=S)N2CCN(C3CCCCC3)CC2)c1 [Compound 253]	10 to 20
Cc1cncc(NC(=S)N2CCN(c3cccc(C(F)(F)F)c3)CC2)c1 [Compound 29]	5 to 10
FC(F)(F)c1cccc(N2CCN(C(=S)Nc3cnccn3)CC2)c1 [Compound 128]	≥ 20
Cc1cc(C)nc(NC(=S)N2CCN(Cc3cccc4ccccc34)CC2)c1 [Compound 168]	≥ 20
Cc1ccnc(NC(=S)N2CCCc3ccc(C(F)(F)F)cc32)c1 [Compound 60]	≥ 20
Cc1cc(C)nc(NC(=S)N2CCN(c3ccc4ncccc4c3[N+](=O)[O-])CC2)c1 [Compound 124]	10 to 20
Cc1cc(C)nc(NC(=S)N2CCN(c3ccc4cn(C)nc4c3)CC2)c1 [Compound 129]	≥ 20
Cc1ccc(N2CCN(C(=S)Nc3cc(C)ccn3)CC2)cc1 [Compound 11]	≥ 20
Cc1cc(C)nc(NC(=S)N2CCN(c3ccc(Cl)cc3[S+](C)(=O)[O-])CC2)c1 [Compound 115]	10 to 20
Cc1cc(C)nc(NC(=S)N2CCN(C3=Nc4ccccc4Oc4ccccc43)CC2)c1 [Compound 154]	≥ 20
Cc1cc(C)nc(NC(=S)N2CCN(c3nccs3)CC2)c1 [Compound 87]	≥ 20
